In PMC3639963, “A New Class of Small Molecule Inhibitor of BMP Signaling” (PLoS ONE, 2013):

Columns and labels:
[1] = target: T1, NDR1 (Homo sapiens, UniProt Q15208); assay: DSF thermal shift; type: binding; details: 10 µM inhibitor; read-out: Tm shift
T1 construct: purchased Nanosyn (enzymatic panel); SGC in-house recombinant human kinases (DSF panel); Invitrogen (ALK1-6)
Method in brief: (§1)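 Protein unfolding is read on a real-time PCR instrument. The assay uses 1–2 µM recombinant human kinase with test compound at 10 µM.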

[2] = target: T2, ALK5 (Homo sapiens, UniProt P36897); assay: DSF thermal shift; type: binding; details: 10 µM inhibitor; read-out: Tm shift
T2 construct: purchased Nanosyn (enzymatic panel); SGC in-house recombinant human kinases (DSF panel); Invitrogen (ALK1-6)
Method in brief: as §1

[3] = target: T3, ZAK (Homo sapiens, UniProt Q9NYL2); assay: DSF thermal shift; type: binding; details: 10 µM inhibitor; read-out: Tm shift
T3 construct: purchased Nanosyn (enzymatic panel); SGC in-house recombinant human kinases (DSF panel); Invitrogen (ALK1-6)
Method in brief: as §1

[4] = target: T4, CK1ε (Homo sapiens, UniProt P49674); assay: DSF thermal shift; type: binding; details: 10 µM inhibitor; read-out: Tm shift
T4 construct: purchased Nanosyn (enzymatic panel); SGC in-house recombinant human kinases (DSF panel); Invitrogen (ALK1-6)
Method in brief: as §1

[5] = target: T5, CLK1 (Homo sapiens, UniProt P49759); assay: DSF thermal shift; type: binding; details: 10 µM inhibitor; read-out: Tm shift
T5 construct: purchased Nanosyn (enzymatic panel); SGC in-house recombinant human kinases (DSF panel); Invitrogen (ALK1-6)
Method in brief: as §1

[6] = target: T6, CK1γ3 (Homo sapiens, UniProt Q9Y6M4); assay: DSF thermal shift; type: binding; details: 10 µM inhibitor; read-out: Tm shift
T6 construct: purchased Nanosyn (enzymatic panel); SGC in-house recombinant human kinases (DSF panel); Invitrogen (ALK1-6)
Method in brief: as §1

[7] = target: T7, BMX (Homo sapiens, UniProt P51813); assay: DSF thermal shift; type: binding; details: 10 µM inhibitor; read-out: Tm shift
T7 construct: purchased Nanosyn (enzymatic panel); SGC in-house recombinant human kinases (DSF panel); Invitrogen (ALK1-6)
T7 sequence (P51813 1-675): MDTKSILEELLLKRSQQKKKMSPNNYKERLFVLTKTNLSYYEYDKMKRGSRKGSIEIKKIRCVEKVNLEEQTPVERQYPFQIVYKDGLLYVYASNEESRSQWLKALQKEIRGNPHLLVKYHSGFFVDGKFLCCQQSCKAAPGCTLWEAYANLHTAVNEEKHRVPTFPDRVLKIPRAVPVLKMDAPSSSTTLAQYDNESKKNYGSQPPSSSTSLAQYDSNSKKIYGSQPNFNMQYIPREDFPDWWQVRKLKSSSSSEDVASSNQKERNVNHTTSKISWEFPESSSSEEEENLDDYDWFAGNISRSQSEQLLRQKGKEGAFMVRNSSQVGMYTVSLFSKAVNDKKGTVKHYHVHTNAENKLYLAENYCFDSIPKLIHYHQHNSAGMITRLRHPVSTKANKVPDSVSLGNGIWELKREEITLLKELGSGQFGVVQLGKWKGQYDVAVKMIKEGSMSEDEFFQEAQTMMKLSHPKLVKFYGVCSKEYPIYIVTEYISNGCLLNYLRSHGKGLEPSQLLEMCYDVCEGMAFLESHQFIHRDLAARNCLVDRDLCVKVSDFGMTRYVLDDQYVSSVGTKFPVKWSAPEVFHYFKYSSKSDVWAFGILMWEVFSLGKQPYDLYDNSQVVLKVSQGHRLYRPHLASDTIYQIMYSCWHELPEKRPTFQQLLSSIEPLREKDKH
Method in brief: as §1

[8] = target: T8, PKMYT1 (Homo sapiens, UniProt Q99640); assay: DSF thermal shift; type: binding; details: 10 µM inhibitor; read-out: Tm shift
T8 construct: purchased Nanosyn (enzymatic panel); SGC in-house recombinant human kinases (DSF panel); Invitrogen (ALK1-6)
Method in brief: as §1

[9] = target: T9, BMPRII (Homo sapiens, UniProt Q13873); assay: DSF thermal shift; type: binding; details: 10 µM inhibitor; read-out: Tm shift
T9 construct: purchased Nanosyn (enzymatic panel); SGC in-house recombinant human kinases (DSF panel); Invitrogen (ALK1-6)
Method in brief: as §1

[10] = target: T10, SRPK2 (Homo sapiens, UniProt P78362); assay: DSF thermal shift; type: binding; details: 10 µM inhibitor; read-out: Tm shift
T10 construct: purchased Nanosyn (enzymatic panel); SGC in-house recombinant human kinases (DSF panel); Invitrogen (ALK1-6)
Method in brief: as §1

[11] = target: T11, DAPK3 (Homo sapiens, UniProt O43293); assay: DSF thermal shift; type: binding; details: 10 µM inhibitor; read-out: Tm shift
T11 construct: purchased Nanosyn (enzymatic panel); SGC in-house recombinant human kinases (DSF panel); Invitrogen (ALK1-6)
Method in brief: as §1

[12] = target: T12, p38β (Homo sapiens, UniProt Q15759); assay: DSF thermal shift; type: binding; details: 10 µM inhibitor; read-out: Tm shift
T12 construct: purchased Nanosyn (enzymatic panel); SGC in-house recombinant human kinases (DSF panel); Invitrogen (ALK1-6)
Method in brief: as §1

[13] = target: T13, PRKX (Homo sapiens, UniProt P51817); assay: DSF thermal shift; type: binding; details: 10 µM inhibitor; read-out: Tm shift
T13 construct: purchased Nanosyn (enzymatic panel); SGC in-house recombinant human kinases (DSF panel); Invitrogen (ALK1-6)
T13 sequence (P51817 1-358): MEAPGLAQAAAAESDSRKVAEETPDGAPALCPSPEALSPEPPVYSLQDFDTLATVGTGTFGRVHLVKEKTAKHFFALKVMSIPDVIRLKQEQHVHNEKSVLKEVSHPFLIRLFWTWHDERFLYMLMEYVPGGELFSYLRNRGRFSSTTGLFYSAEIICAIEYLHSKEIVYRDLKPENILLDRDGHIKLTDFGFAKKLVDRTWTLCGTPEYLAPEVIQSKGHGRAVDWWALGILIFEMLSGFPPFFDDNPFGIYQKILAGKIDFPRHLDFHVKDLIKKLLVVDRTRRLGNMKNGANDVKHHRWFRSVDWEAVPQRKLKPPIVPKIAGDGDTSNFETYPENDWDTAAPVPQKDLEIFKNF
Method in brief: as §1

[14] = target: T14, CDK8 (Homo sapiens, UniProt P49336); assay: DSF thermal shift; type: binding; details: 10 µM inhibitor; read-out: Tm shift
T14 construct: purchased Nanosyn (enzymatic panel); SGC in-house recombinant human kinases (DSF panel); Invitrogen (ALK1-6)
Method in brief: as §1

[15] = target: T15, PCTAIRE1 (Homo sapiens, UniProt Q00536); assay: DSF thermal shift; type: binding; details: 10 µM inhibitor; read-out: Tm shift
T15 construct: purchased Nanosyn (enzymatic panel); SGC in-house recombinant human kinases (DSF panel); Invitrogen (ALK1-6)
Method in brief: as §1

[16] = target: T16, GUCY2D (Homo sapiens, UniProt Q02846); assay: DSF thermal shift; type: binding; details: 10 µM inhibitor; read-out: Tm shift
T16 construct: purchased Nanosyn (enzymatic panel); SGC in-house recombinant human kinases (DSF panel); Invitrogen (ALK1-6)
Method in brief: as §1

[17] = target: T17, TOPK (Homo sapiens, UniProt Q96KB5); assay: DSF thermal shift; type: binding; details: 10 µM inhibitor; read-out: Tm shift
T17 construct: purchased Nanosyn (enzymatic panel); SGC in-house recombinant human kinases (DSF panel); Invitrogen (ALK1-6)
Method in brief: as §1

[18] = target: T18, GRK3 (Homo sapiens, UniProt P35626); assay: DSF thermal shift; type: binding; details: 10 µM inhibitor; read-out: Tm shift
T18 construct: purchased Nanosyn (enzymatic panel); SGC in-house recombinant human kinases (DSF panel); Invitrogen (ALK1-6)
Method in brief: as §1

[19] = target: T19, TNIK (Homo sapiens, UniProt Q9UKE5); assay: DSF thermal shift; type: binding; details: 10 µM inhibitor; read-out: Tm shift
T19 construct: purchased Nanosyn (enzymatic panel); SGC in-house recombinant human kinases (DSF panel); Invitrogen (ALK1-6)
Method in brief: as §1

[20] = target: T20, PHKγ2 (Homo sapiens, UniProt P15735); assay: Nanosyn kinase profiling; type: biochemical; details: read-out: Percentage inhibition; for inhibition at 0.1 µM: 0.1 µM inhibitor; for inhibition at 1 µM: 1 µM inhibitor
T20 construct: purchased Nanosyn (enzymatic panel); SGC in-house recombinant human kinases (DSF panel); Invitrogen (ALK1-6)
T20 sequence (P15735 1-406): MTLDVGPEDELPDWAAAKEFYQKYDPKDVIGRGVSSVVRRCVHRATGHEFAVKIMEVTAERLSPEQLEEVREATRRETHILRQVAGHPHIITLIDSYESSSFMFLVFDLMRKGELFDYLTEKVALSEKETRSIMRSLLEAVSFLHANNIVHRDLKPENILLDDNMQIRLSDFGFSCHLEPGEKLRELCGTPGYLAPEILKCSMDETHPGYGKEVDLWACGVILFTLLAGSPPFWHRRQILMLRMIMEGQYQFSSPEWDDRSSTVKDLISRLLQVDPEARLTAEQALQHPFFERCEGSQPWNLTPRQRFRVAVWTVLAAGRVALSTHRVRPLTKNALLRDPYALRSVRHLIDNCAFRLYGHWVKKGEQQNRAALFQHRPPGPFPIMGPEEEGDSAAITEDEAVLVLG
Method in brief: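 Percent inhibition of each kinase was measured with the inhibitor at 0.1 µM and at 1 µM, as part of a 200-kinase human selectivity panel.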

[21] = target: T21, ALK3 (Homo sapiens, UniProt P36894); assay: DSF thermal shift; type: binding; details: 10 µM inhibitor; read-out: Tm shift
T21 construct: purchased Nanosyn (enzymatic panel); SGC in-house recombinant human kinases (DSF panel); Invitrogen (ALK1-6)
Method in brief: as §1

T6 sequence (Q9Y6M4 whole entry): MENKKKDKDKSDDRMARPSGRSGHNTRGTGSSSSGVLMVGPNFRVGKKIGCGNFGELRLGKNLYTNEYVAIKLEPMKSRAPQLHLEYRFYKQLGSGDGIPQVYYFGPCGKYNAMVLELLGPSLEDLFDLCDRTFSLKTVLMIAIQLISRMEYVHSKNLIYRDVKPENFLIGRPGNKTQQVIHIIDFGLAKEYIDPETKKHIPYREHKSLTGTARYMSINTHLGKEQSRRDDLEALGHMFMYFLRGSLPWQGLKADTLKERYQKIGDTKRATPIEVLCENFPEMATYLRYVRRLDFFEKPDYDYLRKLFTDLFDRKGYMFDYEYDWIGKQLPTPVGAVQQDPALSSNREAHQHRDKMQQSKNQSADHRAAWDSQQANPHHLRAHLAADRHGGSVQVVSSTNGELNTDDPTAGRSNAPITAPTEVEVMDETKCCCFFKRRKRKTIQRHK
T2 sequence (P36897 34-503): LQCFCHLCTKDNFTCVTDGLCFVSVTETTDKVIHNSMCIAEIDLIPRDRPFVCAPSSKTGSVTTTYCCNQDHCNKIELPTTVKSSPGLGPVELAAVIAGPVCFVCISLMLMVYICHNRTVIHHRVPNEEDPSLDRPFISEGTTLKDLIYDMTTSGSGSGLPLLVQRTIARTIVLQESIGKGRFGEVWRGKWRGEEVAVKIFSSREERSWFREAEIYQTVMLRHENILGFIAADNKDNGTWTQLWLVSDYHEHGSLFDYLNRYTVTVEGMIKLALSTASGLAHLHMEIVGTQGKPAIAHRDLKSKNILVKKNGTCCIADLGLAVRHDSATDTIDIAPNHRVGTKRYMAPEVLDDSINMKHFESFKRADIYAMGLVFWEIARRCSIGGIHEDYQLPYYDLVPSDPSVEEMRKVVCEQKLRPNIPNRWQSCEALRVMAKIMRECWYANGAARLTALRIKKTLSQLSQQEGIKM
T18 sequence (P35626 whole entry): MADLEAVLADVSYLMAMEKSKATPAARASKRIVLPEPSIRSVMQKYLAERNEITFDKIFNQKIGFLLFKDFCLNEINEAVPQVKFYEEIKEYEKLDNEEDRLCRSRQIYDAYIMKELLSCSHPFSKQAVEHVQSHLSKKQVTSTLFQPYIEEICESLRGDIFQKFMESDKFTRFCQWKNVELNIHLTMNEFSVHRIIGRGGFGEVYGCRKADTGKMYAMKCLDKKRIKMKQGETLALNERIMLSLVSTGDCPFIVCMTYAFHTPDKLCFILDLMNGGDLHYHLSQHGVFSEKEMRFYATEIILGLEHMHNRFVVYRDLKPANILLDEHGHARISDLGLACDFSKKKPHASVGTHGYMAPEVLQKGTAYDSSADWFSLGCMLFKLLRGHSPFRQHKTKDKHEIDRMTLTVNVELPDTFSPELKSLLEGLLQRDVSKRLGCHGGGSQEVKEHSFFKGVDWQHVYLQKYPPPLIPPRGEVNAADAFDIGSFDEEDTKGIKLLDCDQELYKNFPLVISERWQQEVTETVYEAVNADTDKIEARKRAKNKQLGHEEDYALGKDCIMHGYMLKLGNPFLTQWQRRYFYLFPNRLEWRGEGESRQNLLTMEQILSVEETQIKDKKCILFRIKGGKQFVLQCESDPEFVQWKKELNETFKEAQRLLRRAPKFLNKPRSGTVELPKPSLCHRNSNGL
T10 sequence (P78362 whole entry): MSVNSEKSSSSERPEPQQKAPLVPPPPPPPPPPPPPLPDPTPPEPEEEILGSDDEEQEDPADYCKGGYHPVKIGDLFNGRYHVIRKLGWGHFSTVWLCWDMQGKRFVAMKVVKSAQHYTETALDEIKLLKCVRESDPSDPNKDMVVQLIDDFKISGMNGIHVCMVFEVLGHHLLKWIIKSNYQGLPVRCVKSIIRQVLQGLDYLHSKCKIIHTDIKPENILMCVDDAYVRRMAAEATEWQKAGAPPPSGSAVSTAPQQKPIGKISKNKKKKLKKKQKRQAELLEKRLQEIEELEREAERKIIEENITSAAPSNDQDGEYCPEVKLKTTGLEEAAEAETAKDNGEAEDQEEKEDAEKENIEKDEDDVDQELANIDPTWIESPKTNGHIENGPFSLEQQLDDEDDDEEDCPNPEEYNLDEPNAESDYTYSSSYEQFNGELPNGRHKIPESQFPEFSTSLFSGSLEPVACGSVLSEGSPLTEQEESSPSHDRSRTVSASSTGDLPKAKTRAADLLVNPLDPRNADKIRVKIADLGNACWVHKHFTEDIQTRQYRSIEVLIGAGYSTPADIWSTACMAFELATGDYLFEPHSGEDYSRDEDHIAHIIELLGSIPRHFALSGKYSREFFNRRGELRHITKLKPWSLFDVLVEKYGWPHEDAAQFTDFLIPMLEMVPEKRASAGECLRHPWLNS
T21 sequence (P36894 24-532): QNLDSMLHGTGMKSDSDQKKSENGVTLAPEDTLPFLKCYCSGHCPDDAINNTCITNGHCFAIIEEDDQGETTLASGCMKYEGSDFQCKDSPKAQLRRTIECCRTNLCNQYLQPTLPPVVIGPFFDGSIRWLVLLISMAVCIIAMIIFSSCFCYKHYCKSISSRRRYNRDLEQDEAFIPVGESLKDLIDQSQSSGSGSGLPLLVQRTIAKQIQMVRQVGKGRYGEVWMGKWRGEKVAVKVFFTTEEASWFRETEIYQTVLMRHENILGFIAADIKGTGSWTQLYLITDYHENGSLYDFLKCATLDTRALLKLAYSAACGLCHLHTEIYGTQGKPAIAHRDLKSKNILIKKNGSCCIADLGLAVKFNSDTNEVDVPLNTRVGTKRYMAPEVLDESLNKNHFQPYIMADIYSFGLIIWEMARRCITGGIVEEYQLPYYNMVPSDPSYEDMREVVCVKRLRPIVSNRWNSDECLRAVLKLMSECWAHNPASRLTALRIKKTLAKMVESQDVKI
T8 sequence (Q99640 whole entry): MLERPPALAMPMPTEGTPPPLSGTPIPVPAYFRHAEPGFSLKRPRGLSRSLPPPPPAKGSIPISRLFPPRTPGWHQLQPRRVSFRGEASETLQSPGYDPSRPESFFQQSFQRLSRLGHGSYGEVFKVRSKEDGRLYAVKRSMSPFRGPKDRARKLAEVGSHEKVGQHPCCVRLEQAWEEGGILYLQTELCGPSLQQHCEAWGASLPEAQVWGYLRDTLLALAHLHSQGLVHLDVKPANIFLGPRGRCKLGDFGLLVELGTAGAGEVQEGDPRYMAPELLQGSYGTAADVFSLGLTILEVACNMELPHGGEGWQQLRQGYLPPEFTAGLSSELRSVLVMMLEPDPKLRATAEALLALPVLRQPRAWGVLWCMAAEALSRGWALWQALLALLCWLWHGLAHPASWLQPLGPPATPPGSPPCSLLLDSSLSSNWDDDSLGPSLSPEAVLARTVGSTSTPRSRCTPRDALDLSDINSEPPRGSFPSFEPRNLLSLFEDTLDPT
T15 sequence (Q00536 whole entry): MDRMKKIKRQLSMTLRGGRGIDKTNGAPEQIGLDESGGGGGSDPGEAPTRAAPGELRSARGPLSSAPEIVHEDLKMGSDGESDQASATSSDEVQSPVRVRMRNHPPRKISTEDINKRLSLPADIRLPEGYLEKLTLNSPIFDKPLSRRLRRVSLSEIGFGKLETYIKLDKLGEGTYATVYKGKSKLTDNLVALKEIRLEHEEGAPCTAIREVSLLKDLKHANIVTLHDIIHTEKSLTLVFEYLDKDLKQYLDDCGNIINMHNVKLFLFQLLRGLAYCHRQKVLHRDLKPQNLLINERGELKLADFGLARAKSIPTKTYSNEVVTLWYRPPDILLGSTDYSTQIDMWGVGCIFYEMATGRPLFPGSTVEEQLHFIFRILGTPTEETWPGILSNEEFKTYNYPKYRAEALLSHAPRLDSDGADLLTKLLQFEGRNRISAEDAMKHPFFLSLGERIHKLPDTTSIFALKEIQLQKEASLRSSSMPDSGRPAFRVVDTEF
T3 sequence (Q9NYL2 whole entry): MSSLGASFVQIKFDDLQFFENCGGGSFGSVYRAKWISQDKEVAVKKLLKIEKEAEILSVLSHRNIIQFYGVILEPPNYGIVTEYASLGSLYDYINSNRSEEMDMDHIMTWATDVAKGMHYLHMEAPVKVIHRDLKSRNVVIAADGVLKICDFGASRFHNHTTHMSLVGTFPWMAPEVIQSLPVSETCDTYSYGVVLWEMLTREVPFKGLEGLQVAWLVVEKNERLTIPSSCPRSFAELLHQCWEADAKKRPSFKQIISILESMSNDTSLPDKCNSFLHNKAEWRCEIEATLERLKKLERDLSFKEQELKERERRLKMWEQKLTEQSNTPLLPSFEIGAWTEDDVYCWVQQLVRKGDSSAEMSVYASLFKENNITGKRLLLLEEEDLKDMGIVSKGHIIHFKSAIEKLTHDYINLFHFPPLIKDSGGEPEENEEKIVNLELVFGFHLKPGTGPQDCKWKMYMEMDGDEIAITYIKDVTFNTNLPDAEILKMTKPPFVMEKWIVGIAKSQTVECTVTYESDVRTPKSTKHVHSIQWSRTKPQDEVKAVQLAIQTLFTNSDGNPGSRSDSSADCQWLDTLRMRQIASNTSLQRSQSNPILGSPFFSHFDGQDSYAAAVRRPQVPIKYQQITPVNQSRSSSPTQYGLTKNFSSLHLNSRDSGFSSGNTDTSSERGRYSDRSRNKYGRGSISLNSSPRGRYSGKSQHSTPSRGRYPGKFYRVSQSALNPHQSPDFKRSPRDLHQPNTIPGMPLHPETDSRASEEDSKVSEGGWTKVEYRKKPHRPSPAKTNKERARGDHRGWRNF
T17 sequence (Q96KB5 whole entry): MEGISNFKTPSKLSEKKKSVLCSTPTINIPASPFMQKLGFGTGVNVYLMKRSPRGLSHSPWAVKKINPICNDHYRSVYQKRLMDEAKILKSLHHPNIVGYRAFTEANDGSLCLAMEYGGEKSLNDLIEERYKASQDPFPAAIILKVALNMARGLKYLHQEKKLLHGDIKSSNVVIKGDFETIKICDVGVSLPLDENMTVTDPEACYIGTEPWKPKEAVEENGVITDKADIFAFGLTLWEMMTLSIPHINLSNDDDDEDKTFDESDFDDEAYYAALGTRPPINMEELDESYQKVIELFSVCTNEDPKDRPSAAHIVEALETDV

SMILES	ΔTm at 10 µM [1]	ΔTm at 10 µM [2]	ΔTm at 10 µM [3]	ΔTm at 10 µM [4]	ΔTm at 10 µM [5]	ΔTm at 10 µM [6]	ΔTm at 10 µM [7]	ΔTm at 10 µM [8]	ΔTm at 10 µM [9]	ΔTm at 10 µM [10]	ΔTm at 10 µM [11]	ΔTm at 10 µM [12]	ΔTm at 10 µM [13]	ΔTm at 10 µM [14]	ΔTm at 10 µM [15]	ΔTm at 10 µM [16]	ΔTm at 10 µM [17]	ΔTm at 10 µM [18]	ΔTm at 10 µM [19]	inhibition at 0.1 µM [20]	further results
c1cc(-c2cnn3cc(-c4ccc(OCCN5CCCCC5)cc4)cnc23)ccn1 [Dorsomorphin]	2.8 °C	7.4 °C	0.5 °C	5.9 °C	8.3 °C	1.2 °C	1.4 °C	0.1 °C	1.5 °C	0.2 °C	1.2 °C	1.1 °C	2.9 °C	0.5 °C	4.7 °C	-0.1 °C	0.3 °C	-0.1 °C	4.2 °C	–	–
COc1cc(-c2cc(-c3cccc(O)c3)cnc2N)cc(OC)c1OC [K02288, 3-[6-amino-5-(3,4,5-trimethoxy-phenyl)-pyridin-3-yl]-phenol]	0.1 °C	11.6 °C	-0.1 °C	4.5 °C	-0.1 °C	2 °C	1 °C	-0.4 °C	3.5 °C	0.2 °C	0.2 °C	0.5 °C	0.2 °C	0.1 °C	-1.8 °C	–	-0.2 °C	0.1 °C	6.1 °C	-3%	inhibition at 1 µM [20]: -3%; ΔTm at 10 µM [21]: 12.8 °C
c1ccc2c(-c3cnn4cc(-c5ccc(N6CCNCC6)cc5)cnc34)ccnc2c1 [LDN-193189]	–	–	–	–	–	–	–	–	–	–	–	–	–	–	–	-0.2 °C	–	–	–	3.5%	inhibition at 1 µM [20]: 4.9%; ΔTm at 10 µM [21]: 14 °C
